{"source": "patent US12077503B2", "about": "“Substituted cyclic amides and their use as herbicides” (FMC CORPORATION, priority 2015, dated 2024)", "type_in_all_cases": "in vivo", "key": {"[1]": {"test_system": "barnyardgrass (Echinochloa crus-galli)", "experiment": "Test A postemergence", "details": "Echinochloa crus-galli, post-emergence, 240 h, read-out: Plant response rating, Barnyardgrass", "method_in_brief": "(§1)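 Seeded soil received test chemicals as a preemergence directed spray, and seedlings at one to two leaves, 2–10 cm tall, received them postemergence, in a non-phytotoxic, surfactant-containing solvent mixture. Pots were held in a greenhouse for approximately 10 d, then rated for injury from 0, no effect, to 100, complete control.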"}, "[2]": {"test_system": "ragweed (common ragweed, Ambrosia elatior)", "experiment": "Test A postemergence", "details": "Ambrosia artemisiifolia, post-emergence, 240 h, postemergence, approx. 10 d", "method_in_brief": "as §1"}, "[3]": {"test_system": "Galium (catchweed bedstraw, Galium aparine)", "experiment": "Test A postemergence", "details": "Galium, post-emergence, 240 h, postemergence, approx. 10 d", "method_in_brief": "as §1"}, "[4]": {"test_system": "blackgrass (Alopecurus myosuroides)", "experiment": "Test A postemergence", "details": "Alopecurus myosuroides, post-emergence, 240 h, read-out: Plant response rating, Blackgrass", "method_in_brief": "as §1"}, "[5]": {"test_system": "ryegrass, Italian (Italian ryegrass, Lolium multiflorum)", "experiment": "Test A postemergence", "details": "Lolium multiflorum, post-emergence, 240 h, postemergence, approx. 10 d", "method_in_brief": "as §1"}, "[6]": {"test_system": "giant foxtail (Setaria faberii)", "experiment": "Test A postemergence", "details": "Setaria faberi, post-emergence, 240 h, postemergence, approx. 10 d", "method_in_brief": "as §1"}, "[7]": {"test_system": "wheat (Triticum aestivum)", "experiment": "Test A postemergence", "details": "Triticum aestivum, post-emergence, 240 h, postemergence, approx. 10 d", "method_in_brief": "as §1"}, "[8]": {"test_system": "corn (Zea mays)", "experiment": "Test A postemergence", "details": "Zea mays, post-emergence, 240 h", "method_in_brief": "as §1"}, "[9]": {"test_system": "pigweed (Amaranthus retroflexus)", "experiment": "Test A postemergence", "details": "Amaranthus retroflexus, post-emergence, 240 h, postemergence, approx. 10 d", "method_in_brief": "as §1"}, "[10]": {"test_system": "barnyardgrass (Echinochloa crus-galli)", "experiment": "Test A preemergence", "details": "Echinochloa crus-galli, pre-emergence, 240 h", "method_in_brief": "as §1"}, "[11]": {"test_system": "ragweed (common ragweed, Ambrosia elatior)", "experiment": "Test A preemergence", "details": "Ambrosia artemisiifolia, pre-emergence, 240 h", "method_in_brief": "as §1"}, "[12]": {"test_system": "ryegrass, Italian (Italian ryegrass, Lolium multiflorum)", "experiment": "Test A preemergence", "details": "Lolium multiflorum, pre-emergence, 240 h", "method_in_brief": "as §1"}, "[13]": {"test_system": "giant foxtail (Setaria faberii)", "experiment": "Test A preemergence", "details": "Setaria faberi, pre-emergence, 240 h", "method_in_brief": "as §1"}, "[14]": {"test_system": "Kochia (Kochia scoparia)", "experiment": "Test A preemergence", "details": "Bassia scoparia, pre-emergence, 240 h", "method_in_brief": "as §1"}, "[15]": {"test_system": "pigweed (Amaranthus retroflexus)", "experiment": "Test A preemergence", "details": "Amaranthus retroflexus, pre-emergence, 240 h"}, "[16]": {"details": "125 g ai/ha, Postemergence, visual injury after approximately 10 d, 0 to 100 scale where 0 is no effect and 100 is complete control"}, "[17]": {"details": "500 g ai/ha, postemergence, visual injury, 0 to 100 scale (0 no effect, 100 complete control), approx. 10 d"}}, "data": [{"smiles": "CC(C)COc1cccc([C@H]2CN(C)C(=O)[C@@H]2C(=O)Nc2ccc(F)cc2F)c1", "note": "[Compound 1030]", "values": [{"measurement": "pest or weed control at 125 g/ha", "setting": "[1]; [16]", "value": 70, "unit": "%"}, {"measurement": "pest or weed control at 500 g/ha", "setting": "[1]; [17]", "value": 90, "unit": "%"}, {"measurement": "pest or weed control at 125 g/ha", "setting": "[2]; 125 g ai/ha, visual injury on 0 to 100 scale (0 no effect, 100 complete control), read-out: Ragweed plant response rating", "value": 0, "unit": "%"}, {"measurement": "pest or weed control at 500 g/ha", "setting": "[2]; 500 g ai/ha, visual injury, 0 to 100 scale (0 no effect, 100 complete control), read-out: Plant response rating, Ragweed", "value": 0, "unit": "%"}, {"measurement": "pest or weed control at 125 g/ha", "setting": "[3]; 125 g ai/ha, visual injury on 0 to 100 scale (0 no effect, 100 complete control), read-out: Galium plant response rating", "value": 40, "unit": "%"}, {"measurement": "pest or weed control at 500 g/ha", "setting": "[3]; 500 g ai/ha, visual injury, 0 to 100 scale (0 no effect, 100 complete control), read-out: Plant response rating, Galium", "value": 60, "unit": "%"}, {"measurement": "pest or weed control at 125 g/ha", "setting": "[4]; [16]", "value": 0, "unit": "%"}, {"measurement": "pest or weed control at 500 g/ha", "setting": "[4]; [17]", "value": 60, "unit": "%"}, {"measurement": "pest or weed control at 125 g/ha", "setting": "[5]; 125 g ai/ha, visual injury on 0 to 100 scale (0 no effect, 100 complete control), read-out: Ryegrass, Italian plant response rating", "value": 0, "unit": "%"}, {"measurement": "pest or weed control at 500 g/ha", "setting": "[5]; 500 g ai/ha, visual injury, 0 to 100 scale (0 no effect, 100 complete control), read-out: Plant response rating, Ryegrass, Italian", "value": 0, "unit": "%"}, {"measurement": "pest or weed control at 125 g/ha", "setting": "[6]; 125 g ai/ha, visual injury on 0 to 100 scale (0 no effect, 100 complete control), read-out: Foxtail, Giant plant response rating", "value": 70, "unit": "%"}, {"measurement": "pest or weed control at 500 g/ha", "setting": "[6]; 500 g ai/ha, visual injury, 0 to 100 scale (0 no effect, 100 complete control), read-out: Plant response rating, Foxtail, Giant", "value": 90, "unit": "%"}, {"measurement": "plant injury at 125 g/ha", "setting": "[7]; 125 g ai/ha, visual injury on 0 to 100 scale (0 no effect, 100 complete control), read-out: Wheat plant response rating", "value": 30, "unit": "%"}, {"measurement": "plant injury at 500 g/ha", "setting": "[7]; 500 g ai/ha, visual injury, 0 to 100 scale (0 no effect, 100 complete control), read-out: Plant response rating, Wheat", "value": 60, "unit": "%"}, {"measurement": "Corn plant response rating (crop injury, 0 = no effect, 100 = complete kill) at 125 g/ha", "setting": "[8]; [16]", "value": 20, "unit": "%"}, {"measurement": "Corn plant response rating (crop injury, 0 = no effect, 100 = complete kill) at 500 g/ha", "setting": "[8]; [17]", "value": 50, "unit": "%"}, {"measurement": "pest or weed control at 125 g/ha", "setting": "[9]; 125 g ai/ha, visual injury on 0 to 100 scale (0 no effect, 100 complete control), read-out: Pigweed plant response rating", "value": 0, "unit": "%"}, {"measurement": "pest or weed control at 500 g/ha", "setting": "[9]; 500 g ai/ha, visual injury, 0 to 100 scale (0 no effect, 100 complete control), read-out: Plant response rating, Pigweed", "value": 0, "unit": "%"}, {"measurement": "pest or weed control at 125 g/ha", "setting": "[10]; 125 g ai/ha, Preemergence, visual injury rating after approximately 10 d, read-out: Barnyardgrass plant response rating (0 to 100 scale, 0 is no effect, 100 is complete control)", "value": 70, "unit": "%"}, {"measurement": "pest or weed control at 500 g/ha", "setting": "[10]; 500 g ai/ha, preemergence, visual injury rating about 10 d after treatment, 0 to 100 scale (0 no effect, 100 complete control), read-out: Barnyardgrass plant response rating", "value": 90, "unit": "%"}, {"measurement": "pest or weed control at 125 g/ha", "setting": "[11]; 125 g ai/ha, Preemergence, visual injury rating after approximately 10 d, read-out: Ragweed plant response rating (0 to 100 scale, 0 is no effect, 100 is complete control)", "value": 0, "unit": "%"}, {"measurement": "pest or weed control at 500 g/ha", "setting": "[11]; 500 g ai/ha, preemergence, visual injury rating about 10 d after treatment, 0 to 100 scale (0 no effect, 100 complete control), read-out: Ragweed plant response rating", "value": 0, "unit": "%"}, {"measurement": "pest or weed control at 125 g/ha", "setting": "[12]; 125 g ai/ha, Preemergence, visual injury rating after approximately 10 d, read-out: Ryegrass, Italian plant response rating (0 to 100 scale, 0 is no effect, 100 is complete control)", "value": 70, "unit": "%"}, {"measurement": "pest or weed control at 500 g/ha", "setting": "[12]; 500 g ai/ha, preemergence, visual injury rating about 10 d after treatment, 0 to 100 scale (0 no effect, 100 complete control), read-out: Ryegrass, Italian plant response rating", "value": 70, "unit": "%"}, {"measurement": "pest or weed control at 125 g/ha", "setting": "[13]; 125 g ai/ha, Preemergence, visual injury rating after approximately 10 d, read-out: Foxtail, Giant plant response rating (0 to 100 scale, 0 is no effect, 100 is complete control)", "value": 90, "unit": "%"}, {"measurement": "pest or weed control at 500 g/ha", "setting": "[13]; 500 g ai/ha, preemergence, visual injury rating about 10 d after treatment, 0 to 100 scale (0 no effect, 100 complete control), read-out: Foxtail, Giant plant response rating", "value": 90, "unit": "%"}, {"measurement": "pest or weed control at 125 g/ha", "setting": "[14]; 125 g ai/ha, Preemergence, visual injury rating after approximately 10 d, read-out: Kochia plant response rating (0 to 100 scale, 0 is no effect, 100 is complete control)", "value": 0, "unit": "%"}, {"measurement": "pest or weed control at 500 g/ha", "setting": "[14]; 500 g ai/ha, preemergence, visual injury rating about 10 d after treatment, 0 to 100 scale (0 no effect, 100 complete control), read-out: Kochia plant response rating", "value": 70, "unit": "%"}, {"measurement": "pest or weed control at 125 g/ha", "setting": "[15]; 125 g ai/ha, Preemergence, visual injury rating after approximately 10 d, read-out: Pigweed plant response rating (0 to 100 scale, 0 is no effect, 100 is complete control)", "value": 0, "unit": "%"}, {"measurement": "pest or weed control at 500 g/ha", "setting": "[15]; 500 g ai/ha, preemergence, visual injury rating about 10 d after treatment, 0 to 100 scale (0 no effect, 100 complete control), read-out: Pigweed plant response rating", "value": 0, "unit": "%"}]}]}
